The results in this text go back to ChEMBL document CHEMBL1131780 (Bioorg Med Chem Lett, 1999).

Molecules are shown by their SMILES. Numbering of substitutions follows the chain as printed.

The target in series [1] is T1, Muscarinic acetylcholine receptor M1 (Homo sapiens, UniProt P11229).
T1 sequence (P11229 whole entry): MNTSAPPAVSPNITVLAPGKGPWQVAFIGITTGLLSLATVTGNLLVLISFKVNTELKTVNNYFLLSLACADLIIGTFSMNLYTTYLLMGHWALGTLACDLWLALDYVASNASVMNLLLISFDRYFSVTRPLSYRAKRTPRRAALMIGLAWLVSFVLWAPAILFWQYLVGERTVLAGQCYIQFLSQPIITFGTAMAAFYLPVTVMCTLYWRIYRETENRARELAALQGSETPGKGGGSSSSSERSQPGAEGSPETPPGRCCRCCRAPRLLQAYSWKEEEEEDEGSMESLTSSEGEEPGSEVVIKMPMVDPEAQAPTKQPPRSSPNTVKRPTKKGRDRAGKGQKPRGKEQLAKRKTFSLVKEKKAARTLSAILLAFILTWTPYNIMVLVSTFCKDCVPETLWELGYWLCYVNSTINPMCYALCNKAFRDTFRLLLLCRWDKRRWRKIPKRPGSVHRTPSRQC
Description: Affinity towards human M1 receptor expressed in CHO cells using [3H]QNB as radioligand. Format: cell-based.

Series [2] addresses T2, Muscarinic acetylcholine receptor M1 (Homo sapiens) (UniProt P11229).
T2 sequence (whole entry): T1 sequence (P11229 whole entry)
The series is described as follows: Efficacy expressed as PI (percentage of carbachol) against human M1 receptor expressed in CHO cells. Format: functional, cell-based.

For series [3], the target named is T3, Muscarinic acetylcholine receptor M2 (Homo sapiens, UniProt P08172).
T3 sequence (P08172 whole entry): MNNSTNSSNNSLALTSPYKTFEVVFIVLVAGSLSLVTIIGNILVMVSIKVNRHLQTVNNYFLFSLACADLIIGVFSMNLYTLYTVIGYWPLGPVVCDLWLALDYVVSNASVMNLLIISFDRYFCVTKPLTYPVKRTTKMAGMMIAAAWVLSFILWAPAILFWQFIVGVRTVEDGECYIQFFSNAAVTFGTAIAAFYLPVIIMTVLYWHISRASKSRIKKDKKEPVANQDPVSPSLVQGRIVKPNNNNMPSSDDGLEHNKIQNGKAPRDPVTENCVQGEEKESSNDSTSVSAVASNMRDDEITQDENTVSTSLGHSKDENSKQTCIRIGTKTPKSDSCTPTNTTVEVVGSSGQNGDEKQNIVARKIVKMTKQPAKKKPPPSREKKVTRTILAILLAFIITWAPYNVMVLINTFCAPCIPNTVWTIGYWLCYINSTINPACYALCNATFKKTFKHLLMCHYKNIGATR
The series is described as follows: Binding affinity towards human muscarinic M2 receptor.

Series [4] in a line: Compound was evaluated in vivo for lethal dose in rats. Format: ADME, organism-based. Conditions: rat.
Series [5] is described as follows: Compound was evaluated for half-life in human liver microsomes. Format: ADME, Microsome. A general note: Liver microsomes are a subcellular fraction often used to study metabolism.
The subject of series [6] is Monkey. The series is described as follows: In vivo cognitive assessment after oral administration of WAY-132983 in primates (Rhesus and cynomolgus monkeys) using pre-trained aged subjects (long delay). Conditions: Cercopithecidae, read-out: MED. Format: functional.
The test system of series [7] is Monkey. Description: In vivo cognitive assessment after oral administration of WAY-132983 in primates (Rhesus and cynomolgus monkeys) using pre-trained aged subjects (short delay). Format: functional. As to conditions: Cercopithecidae, read-out: MED.
Series [8] deals with T4, Muscarinic acetylcholine receptor M3 (Homo sapiens, UniProt P20309). The series is described as follows: In vitro functional agonism against M3 muscarinic receptor (PI).
T4 sequence (P20309 whole entry): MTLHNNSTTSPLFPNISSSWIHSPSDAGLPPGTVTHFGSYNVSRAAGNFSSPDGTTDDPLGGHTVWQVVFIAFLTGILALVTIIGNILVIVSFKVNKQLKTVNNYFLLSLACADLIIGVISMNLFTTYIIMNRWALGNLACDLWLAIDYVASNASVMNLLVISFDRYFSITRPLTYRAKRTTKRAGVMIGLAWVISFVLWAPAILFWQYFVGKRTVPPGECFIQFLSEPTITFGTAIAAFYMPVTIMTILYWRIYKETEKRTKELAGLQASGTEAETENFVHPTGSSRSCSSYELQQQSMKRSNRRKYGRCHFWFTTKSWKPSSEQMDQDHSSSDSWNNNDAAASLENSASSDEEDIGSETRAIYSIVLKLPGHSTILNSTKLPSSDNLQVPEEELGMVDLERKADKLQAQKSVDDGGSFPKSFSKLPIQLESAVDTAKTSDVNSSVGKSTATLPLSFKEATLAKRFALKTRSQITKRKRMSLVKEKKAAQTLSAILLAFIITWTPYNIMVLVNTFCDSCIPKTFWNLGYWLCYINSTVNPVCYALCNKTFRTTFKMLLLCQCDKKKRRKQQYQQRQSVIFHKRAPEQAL
For series [9], the target named is T4, Muscarinic acetylcholine receptor M3. The series is described as follows: Binding affinity towards human muscarinic M3 receptor.
The target in series [10] is T1, Muscarinic acetylcholine receptor M1. The series is described as follows: In vitro functional agonism against M1 muscarinic receptor (PI).
Series [11] concerns the target T5, Muscarinic acetylcholine receptor M1 (Rattus norvegicus, UniProt P08482).
T5 sequence (P08482 whole entry): T1 sequence (P11229 whole entry) with A5V, T254S, P309S, R320K, A337G, I413V
Description: Binding affinity against M1 receptor was determined by displacing [3H]OXO-M in rat cortical homogenate.

The target in series [12] is T3, Muscarinic acetylcholine receptor M2. Description: In vitro functional agonism against M2 muscarinic receptor (cAMP).
In series [13] the test system is Rattus norvegicus. The series is described as follows: Compound was evaluated in vivo for cognitive impairment reduction in AF64-impaired RAM, rat administered subcutaneously. The class given is functional. Conditions: sc, read-out: MED.
The species named for series [14] is Rattus norvegicus. The series is described as follows: Compound was evaluated for minimum effective dose in the rat radial arm maze model. The class given is functional. As to conditions: read-out: MED.
For series [15], the target named is T6, Muscarinic acetylcholine receptor M2 (Homo sapiens) (UniProt P08172).
T6 sequence (whole entry): T3 sequence (P08172 whole entry)
The series is described as follows: Effective dose against affinity towards human muscarinic M2 receptor. Format: functional.

The target in series [16] is T2, Muscarinic acetylcholine receptor M1 (Homo sapiens).
Description: Effective dose against affinity towards human muscarinic M1 receptor

The Ki is a dissociation constant, usually derived from enzyme kinetics or from competition with a known ligand. On to `CCCCCCOc1nccnc1O[C@@H]1CN2CCC1C2` (stereo in doubt; 12) [listing 1 of 2 here], for which the Ki in series [1] was determined as 465 nM.

`c1cnc(O[C@@H]2CN3CCC2C3)cn1` (stereo in doubt; 1) [listing 1 of 2 here] showed a PI in series [2] of 96%.

As to `CCCCCCSc1cncc(OC2CN3CCC2C3)n1` (stereo not given), the Ki in series [1] was 22 nM. The compound also gave a PI in series [2] of 2%.

For the compound `c1cnc(O[C@@H]2CN3CCC2C3)cn1` (stereo in doubt; 2) [listing 1 of 2 here], in series [2], the PI was 83%.

As a reminder, the LD50 is the dose expected to kill half of the subjects tested. In the case of `c1cnc(O[C@@H]2CN3CCC2C3)cn1` (stereo in doubt; 1) [listing 2 of 2 here], the Ki was found to be 5600 nM in [1] and 40 nM in series [3]. The LD50 in series [4] worked out at 30 mg/kg.

As usually defined, the half-life is the time in which the quantity being followed falls by half. The EC50 is the concentration at which the effect is half-maximal. As for `CCCCCCSc1nccnc1O[C@H]1CN2CCC1C2.Cl` (stereo not given in full), in [5], the half-life was found to be 1.88 h. Besides, the minimal effective dose with Monkey [6] turned out to be 0.01 mg/kg; in the series on Monkey [7], 0.03 mg/kg; with Rattus norvegicus [13] it was 0.03 mg/kg. In addition, the EC50 in series [8] was 3.7 nM; in series [10], 1.1 nM; in series [12] it was 8 nM. Besides, the Ki in series [9] was 5.9 nM; in series [1] it was 2 nM; in series [11], 0.4 nM; in [3], 3.4 nM.

Compound `CCCCCCSc1nccnc1O[C@@H]1CN2CCC1C2` (stereo not given in full) gave a Ki in series [1] of 75 nM. Further, the PI in [2] amounted to 107%.

Turning to `CCCCCCOc1nsnc1C1=CCCN(C)C1`, in series [2], the PI was 79%.

On to `CCCCCCOc1nccnc1SC1CN2CCC1C2` (stereo not given), for which the PI in [2] turned out to be 42%.

As for `CNC(=O)O[C@@H]1CN2CCC1C2` (stereo not given in full), the affinity in [1] corresponds to a Ki of 26000 nM. In series [2], this compound displayed a PI of 100%. In the series filed under Rattus norvegicus [14], the minimal effective dose worked out at 1 mg/kg.

`CCCCCCSc1nccnc1OC1CN2CCC1C2` (stereo in doubt; 4) [listing 1 of 2 here] had a PI in series [2] of 85%.

As to `CCCCCCOc1nccnc1O[C@@H]1CN2CCC1C2` (stereo in doubt; 12) [listing 2 of 2 here], in series [2], the PI stood at 9%.

The compound `CCCCCCSc1nccnc1SC1CN2CCC1C2` (stereo not given) came in with a PI in series [2] of 62%.

Compound `CCCCCCOc1nccnc1O[C@H]1CN2CCC1C2` (stereo not given in full) showed a Ki in series [1] of 690 nM. In series [2], this compound returned a PI of 56%.

As for `CCCCCCSc1nccnc1OC1CN2CCC1C2` (stereo in doubt; 8), in [2], the PI was 104%.

In the case of `CCCCCCOc1nccnc1O[C@@H]1CN2CCC1C2` (stereo in doubt; 6), the inhibition constant Ki in series [1] came out at 14 nM.

In the case of `CCCCCCSc1nccnc1O[C@H]1CN2CCC1C2` (stereo not given in full), the affinity in [1] corresponds to a Ki of 124 nM.

Consider `CCCCCCSc1nccnc1OC1CN2CCC1C2` (stereo in doubt; 4) [listing 2 of 2 here], for which affinity in series [1] was put at a Ki of 7 nM.

Take `CCCCCCOc1nccnc1OC1CN2CCC1C2` (stereo not given): in series [2], the PI amounted to 88%. The ED50 in series [15] was 600 nM; in [16], 1.4 nM. For the same compound, the inhibitory constant (Ki) in [3] is 20 nM.

Compound `c1cnc(O[C@@H]2CN3CCC2C3)cn1` (stereo in doubt; 2) [listing 2 of 2 here] registered a Ki in series [1] of 2500 nM.
